Experimental data as given in patent US9518018B2, “3-alkoxy, thioalkyl and amino-4-amino-6-(substituted)picolinates and their use as herbicides” (Dow AgroSciences LLC, priority 2011, dated 2016).

Key:
Experiment in all cases: In-water applied herbicidal activity in transplanted paddy rice
Type in all cases: in vivo
[1] = tested on: CYPDI = Cyperus difformis L. (small-flower flatsedge); details: for GR50 CYPDI: Table 7, dose to kill or control 50 percent; for GR50 CYPDI / GR90 CYPDI: 21 days after application; for GR90 CYPDI: Table 7, dose to kill or control 90 percent
Procedure: (§1) Weed seeds or nutlets of the desired test plant species were planted in puddled soil (mud) prepared by mixing a non-sterilized mineral soil (28 percent silt, 18 percent clay, and 54 percent sand, with a pH of about 7.3 to 7.8 and an organic matter content of about 1.0 percent) and water at a ratio of 100 kilograms (kg) of soil to 19 liters (L) of water. The prepared mud was dispensed in 250 mL aliquots into 480 mL non-perforated plastic pots with a surface area of 86.59 cm^2 leaving a headspace of 2.5 to 3 cm in each pot. Rice seeds were planted in Sun Gro MetroMix 306 planting mixture, which typically has a pH of 6.0 to 6.8 and an organic matter content of about 30 percent, in plastic plug trays. Seedlings at the second or third leaf stage of growth were transplanted into 650 mL of mud contained in 960 mL non-perforated plastic pots with a surface area of 86.59 cm^2 four days prior to herbicide application. The paddy was created by filling the 2.5 to 3 cm headspace of the pots with water. When required to ensure good germination and healthy plants, a fungicide treatment and/or other chemical or physical treatment was applied. The plants were grown for 4-14 d in a greenhouse with an approximate 14-h photoperiod which was maintained at about 29° C. during the day and 26° C. during the night. Nutrients were added as Osmocote (17:6:10, Nitrogen:Phosphorus:Potassium (N:P:K)+minor nutrients) at 2 grams (g) per cup. Water was added on a regular basis to maintain the paddy flood, and supplemental lighting was provided with overhead metal halide 1000-Watt lamps as necessary. The plants were employed for testing when they reached the second or third true leaf stage. Treatments consisted of compounds 45, 34, and 66. For technical grade compounds, a weighed amount, determined by the highest rate to be tested, was placed in an individual 120 mL glass vial and was dissolved in 20 mL of acetone to obtain concentrated stock solutions. […] The concentrated stock solutions obtained were diluted with 20 mL of an aqueous mixture containing 2.5% Agri-dex crop oil concentrate (v/v). Applications were made by injecting an appropriate amount of the stock solution into the aqueous layer of the paddy. Control plants were treated in the same manner with the solvent blank. All treated plant material received the same concentration of acetone and crop oil concentrate. The treated plants and control plants were placed in a greenhouse as described above and water was added as needed to maintain a paddy flood. After approximately 3 weeks, the condition of the test plants, compared with that of the untreated plants, was determined visually and scored on a scale of 0 to 100 percent where 0 corresponds to no injury and 100 corresponds to complete kill. By applying the well-accepted probit analysis as described by J. Berkson in Journal of the […], 48, 565 (1953) and by D. Finney in “Probit Analysis” Cambridge University Press (1952) or by plotting the mean data and fitting a logarithmic curve to the portion of the data where there was a dose response using Microsoft Excel®, the above data can be used to calculate GR50 and GR90 values, which are defined as growth reduction factors that correspond to the effective dose of herbicide required to kill or control 50 percent or 90 percent, respectively, of a target plant.

[2] = tested on: ECHCG = Echinochloa crus-galli (L.) P.BEAUV. (barnyardgrass); details: for GR50 ECHCG: Table 7, dose to kill or control 50 percent; for GR50 ECHCG / GR90 ECHCG: 21 days after application; for GR90 ECHCG: Table 7, dose to kill or control 90 percent
Procedure: as §1

[3] = tested on: MOOVA = Monochoria vaginalis (BURM.f.) C.PRESL ex KUNTH (monochoria); details: for GR50 MOOVA: Table 7, dose to kill or control 50 percent; for GR50 MOOVA / GR90 MOOVA: 21 days after application; for GR90 MOOVA: Table 7, dose to kill or control 90 percent
Procedure: as §1

[4] = tested on: ORYSA = Oryza sativa ‘M202’ (rice); details: for GR50 ORYSA ‘M202’: Table 7, dose to kill or control 50 percent; for GR50 ORYSA ‘M202’ / GR90 ORYSA ‘M202’: 21 days after application; for GR90 ORYSA ‘M202’: Table 7, dose to kill or control 90 percent
Procedure: as §1

[5] = tested on: ORYSA = Oryza sativa ‘Wells’ (rice); details: for GR50 ORYSA ‘Wells’: Table 7, dose to kill or control 50 percent; for GR50 ORYSA ‘Wells’ / GR90 ORYSA ‘Wells’: 21 days after application; for GR90 ORYSA ‘Wells’: Table 7, dose to kill or control 90 percent
Procedure: as §1

COC(=O)c1nc(-c2ccc(Cl)c(OC)c2F)c(F)c(N)c1OC [Compound 34]
Mean Visual Injury (%)-21 Days After Application CYPDI ([1]; Table 7, 8.75 g ae/ha): 100% | Mean Visual Injury (%)-21 Days After Application CYPDI ([1]; Table 7, 17.5 g ae/ha): 100% | Mean Visual Injury (%)-21 Days After Application CYPDI ([1]; Table 7, 35 g ae/ha): 100% | Mean Visual Injury (%)-21 Days After Application CYPDI ([1]; Table 7, 70 g ae/ha): 100% | Mean Visual Injury (%)-21 Days After Application CYPDI ([1]; Table 7, 140 g ae/ha): 100% | GR50 CYPDI [1]: <8.75 g ae/ha | GR90 CYPDI [1]: <8.75 g ae/ha | Mean Visual Injury (%)-21 Days After Application ECHCG ([2]; Table 7, 8.75 g ae/ha): 0% | Mean Visual Injury (%)-21 Days After Application ECHCG ([2]; Table 7, 17.5 g ae/ha): 7% | Mean Visual Injury (%)-21 Days After Application ECHCG ([2]; Table 7, 35 g ae/ha): 90% | Mean Visual Injury (%)-21 Days After Application ECHCG ([2]; Table 7, 70 g ae/ha): 98% | Mean Visual Injury (%)-21 Days After Application ECHCG ([2]; Table 7, 140 g ae/ha): 100% | GR50 ECHCG [2]: 25.4 g ae/ha | GR90 ECHCG [2]: 52.9 g ae/ha | Mean Visual Injury (%)-21 Days After Application MOOVA ([3]; Table 7, 8.75 g ae/ha): 100% | Mean Visual Injury (%)-21 Days After Application MOOVA ([3]; Table 7, 17.5 g ae/ha): 100% | Mean Visual Injury (%)-21 Days After Application MOOVA ([3]; Table 7, 35 g ae/ha): 100% | Mean Visual Injury (%)-21 Days After Application MOOVA ([3]; Table 7, 70 g ae/ha): 100% | Mean Visual Injury (%)-21 Days After Application MOOVA ([3]; Table 7, 140 g ae/ha): 100% | GR50 MOOVA [3]: <8.75 g ae/ha | GR90 MOOVA [3]: <8.75 g ae/ha | Mean Visual Injury (%)-21 Days After Application ORYSA ‘M202’ ([4]; Table 7, 8.75 g ae/ha): 0% | Mean Visual Injury (%)-21 Days After Application ORYSA ‘M202’ ([4]; Table 7, 17.5 g ae/ha): 0% | Mean Visual Injury (%)-21 Days After Application ORYSA ‘M202’ ([4]; Table 7, 35 g ae/ha): 0% | Mean Visual Injury (%)-21 Days After Application ORYSA ‘M202’ ([4]; Table 7, 70 g ae/ha): 7% | Mean Visual Injury (%)-21 Days After Application ORYSA ‘M202’ ([4]; Table 7, 140 g ae/ha): 8% | GR50 ORYSA ‘M202’ [4]: >140 g ae/ha | GR90 ORYSA ‘M202’ [4]: >140 g ae/ha | Mean Visual Injury (%)-21 Days After Application ORYSA ‘Wells’ ([5]; Table 7, 8.75 g ae/ha): 0% | Mean Visual Injury (%)-21 Days After Application ORYSA ‘Wells’ ([5]; Table 7, 17.5 g ae/ha): 0% | Mean Visual Injury (%)-21 Days After Application ORYSA ‘Wells’ ([5]; Table 7, 35 g ae/ha): 0% | Mean Visual Injury (%)-21 Days After Application ORYSA ‘Wells’ ([5]; Table 7, 70 g ae/ha): 0% | Mean Visual Injury (%)-21 Days After Application ORYSA ‘Wells’ ([5]; Table 7, 140 g ae/ha): 5% | GR50 ORYSA ‘Wells’ [5]: >140 g ae/ha | GR90 ORYSA ‘Wells’ [5]: >140 g ae/ha

COc1c(C(=O)OCc2ccccc2)nc(-c2ccc(Cl)c(OC)c2F)c(F)c1N [Compound 66, benzyl 4-amino-6-(4-chloro-2-fluoro-3-methoxyphenyl)-5-fluoro-3-methoxypicolinate]
Mean Visual Injury (%)-21 Days After Application CYPDI ([1]; Table 7, 2.19 g ae/ha): 0% | Mean Visual Injury (%)-21 Days After Application CYPDI ([1]; Table 7, 4.38 g ae/ha): 48% | Mean Visual Injury (%)-21 Days After Application CYPDI ([1]; Table 7, 8.75 g ae/ha): 94% | Mean Visual Injury (%)-21 Days After Application CYPDI ([1]; Table 7, 17.5 g ae/ha): 100% | Mean Visual Injury (%)-21 Days After Application CYPDI ([1]; Table 7, 35 g ae/ha): 100% | Mean Visual Injury (%)-21 Days After Application CYPDI ([1]; Table 7, 70 g ae/ha): 100% | Mean Visual Injury (%)-21 Days After Application CYPDI ([1]; Table 7, 140 g ae/ha): 100% | GR50 CYPDI [1]: 4.5 g ae/ha | GR90 CYPDI [1]: 8.2 g ae/ha | Mean Visual Injury (%)-21 Days After Application ECHCG ([2]; Table 7, 2.19 g ae/ha): 0% | Mean Visual Injury (%)-21 Days After Application ECHCG ([2]; Table 7, 4.38 g ae/ha): 3% | Mean Visual Injury (%)-21 Days After Application ECHCG ([2]; Table 7, 8.75 g ae/ha): 6% | Mean Visual Injury (%)-21 Days After Application ECHCG ([2]; Table 7, 17.5 g ae/ha): 57% | Mean Visual Injury (%)-21 Days After Application ECHCG ([2]; Table 7, 35 g ae/ha): 86% | Mean Visual Injury (%)-21 Days After Application ECHCG ([2]; Table 7, 70 g ae/ha): 99% | Mean Visual Injury (%)-21 Days After Application ECHCG ([2]; Table 7, 140 g ae/ha): 100% | GR50 ECHCG [2]: 17.4 g ae/ha | GR90 ECHCG [2]: 53.7 g ae/ha | Mean Visual Injury (%)-21 Days After Application MOOVA ([3]; Table 7, 2.19 g ae/ha): 0% | Mean Visual Injury (%)-21 Days After Application MOOVA ([3]; Table 7, 4.38 g ae/ha): 100% | Mean Visual Injury (%)-21 Days After Application MOOVA ([3]; Table 7, 8.75 g ae/ha): 100% | Mean Visual Injury (%)-21 Days After Application MOOVA ([3]; Table 7, 17.5 g ae/ha): 100% | Mean Visual Injury (%)-21 Days After Application MOOVA ([3]; Table 7, 35 g ae/ha): 100% | Mean Visual Injury (%)-21 Days After Application MOOVA ([3]; Table 7, 70 g ae/ha): 100% | Mean Visual Injury (%)-21 Days After Application MOOVA ([3]; Table 7, 140 g ae/ha): 100% | GR50 MOOVA [3]: <4.38 g ae/ha | GR90 MOOVA [3]: <4.38 g ae/ha | Mean Visual Injury (%)-21 Days After Application ORYSA ‘M202’ ([4]; Table 7, 2.19 g ae/ha): 0% | Mean Visual Injury (%)-21 Days After Application ORYSA ‘M202’ ([4]; Table 7, 4.38 g ae/ha): 0% | Mean Visual Injury (%)-21 Days After Application ORYSA ‘M202’ ([4]; Table 7, 8.75 g ae/ha): 0% | Mean Visual Injury (%)-21 Days After Application ORYSA ‘M202’ ([4]; Table 7, 17.5 g ae/ha): 0% | Mean Visual Injury (%)-21 Days After Application ORYSA ‘M202’ ([4]; Table 7, 35 g ae/ha): 0% | Mean Visual Injury (%)-21 Days After Application ORYSA ‘M202’ ([4]; Table 7, 70 g ae/ha): 0% | Mean Visual Injury (%)-21 Days After Application ORYSA ‘M202’ ([4]; Table 7, 140 g ae/ha): 17% | GR50 ORYSA ‘M202’ [4]: >140 g ae/ha | GR90 ORYSA ‘M202’ [4]: >140 g ae/ha | Mean Visual Injury (%)-21 Days After Application ORYSA ‘Wells’ ([5]; Table 7, 8.75 g ae/ha): 0% | Mean Visual Injury (%)-21 Days After Application ORYSA ‘Wells’ ([5]; Table 7, 17.5 g ae/ha): 0% | Mean Visual Injury (%)-21 Days After Application ORYSA ‘Wells’ ([5]; Table 7, 35 g ae/ha): 0% | Mean Visual Injury (%)-21 Days After Application ORYSA ‘Wells’ ([5]; Table 7, 70 g ae/ha): 0% | Mean Visual Injury (%)-21 Days After Application ORYSA ‘Wells’ ([5]; Table 7, 140 g ae/ha): 5% | GR50 ORYSA ‘Wells’ [5]: >140 g ae/ha | GR90 ORYSA ‘Wells’ [5]: >140 g ae/ha
